Laboratory results taken from patent US20070270403A1 (priority 2003, published 2007).

Assays:
5-HT release in NAcc = test: In vivo microvoltammetry, 5-HT release in NAcc (clozapine studies); set-up: species or system Sprague-Dawley Rattus Norvegicus
Procedure: (§1) There is an increasing awareness that a psychosis, similar to that of schizophrenic psychosis, can be derived from cocaine addiction. […] Release mechanisms for monoamines, were determined by using a depolarization blocker, gamma-butyrolactone (γBL). […] Acute and Subacute studies were performed for each treatment group.
(§2) The stereotaxic equipment was purchased from David Kopf Instruments, Tujunga, Calif. A Ag/AgCl reference electrode was placed in contact with dura, 7 mm anteriorally and contralaterally to the indicator microelectrode. A stainless steel auxiliary microelectrode was placed in contact with dura. BRODERICK PROBE® microelectrodes were manufactured on site.
(§3) In vivo microvoltammetric studies on conscious Sprague-Dawley laboratory rats were begun nine to fifteen days after the aseptic surgical operations were performed. On each experimental day, the animal was placed in a Plexiglas-copper faradaic chamber. The three-microelectrode assembly, enclosed within the animal's prosthetic acrylic cap, was connected to a CV37 detector by means of a mercury commutator (Br. Res. Instr., Princeton, N.J.), a flexible cable, and a mating connector (BJM Electronics, Staten Island, N.Y.). The CV37 detector was electrically connected to a Minigard surge suppresser (Jefferson Electric, Magnetek, N.Y.) which was then connected to an electrical ground in isolation. […] Each animal was used as its own control. Changes in synaptic concentrations of DA and 5-HT are presented as percent change (% of control) in order to minimize normal between-animal variations. […] In vivo microvoltammetric scans were recorded in sec and repeated every five min for a period of 2 hrs before each treatment and a period of two hrs after each treatment.
(§4) Potentials were applied with a CV37 detector (BAS, West Lafayette, Ind.). Potentials were applied from −0.2V to +0.4V with respect to a Ag/AgCl (1M NaCl) electrode, at a scan rate of 10 mV/sec at time constants of 5 and 1 tau. One scan was completed in 60 sec. Non-faradaic charging current was eliminated in the first 25 sec.
(§5) Calibration curves were determined experimentally, in vitro, in a freshly prepared deoxygenated physiological saline-phosphate buffer solution (0.01 M, pH=7.4). We use ultra pure Nitrogen (N2) (T. W. Smith Corp., Bklyn, N.Y.) to deoxygenate the buffer solution. […] Calibration studies were also performed in freshly prepared deoxygenated buffer solutions containing phosphotidylethanolamine (PEA), combined with bovine serum albumin (BSA) (Sigma Aldrich, St. Louis, Mo.), a solution which closely mimics brain constituents. […] Detection limits for basal synaptic concentrations of DA and 5-HT in NAcc were 12 nM and 2 nM respectively.

[1] = system: Sprague-Dawley laboratory rats; test: Stereotypy (fine movements of sniffing and grooming) by infrared photobeams (risperidone studies); type: in vivo, Sprague-Dawley Rattus Norvegicus
Procedure: Behaviors were monitored with infrared photobeams which surrounded the faradaic chamber. Open-field behaviors of locomotion (ambulations) and stereotypy (fine movements of sniffing and grooming) were recorded in sec and repeated every five min for a period of 2 hrs before each treatment and a period of 2 hrs after each treatment. Open-field behaviors were monitored simultaneously with in vivo microvoltammetric recordings of monoamines.
The first hr pre-drug, allowed exploratory behavior. Exploratory behavior is defined as open-field behavior of ambulations (forward locomotion) and stereotypy (fine movements of sniffing and grooming), wherein animals respond to the stimuli of a novel environment with a high frequency of behavioral counts. The second hr pre-drug allowed the animal to become habituated before treatment. […] In the acute studies, each drug was administered […]. For the subacute studies, twenty four hrs later, the animals were again placed in the faradaic behavioral chamber and no further drug was administered. Each animal was monitored for possible recovery, withdrawal or after-effects. of each treatment WHILE open-field behaviors of locomotions and stereotypy were monitored with computerized infrared photocell beams which surround the faradaic chamber.
The faradaic chamber was made of plexiglas and covered with copper wire to refract possible electrical artifacts (dimensions: 24 inch (width) by 18 inch (depth) by 23.5 inch (height)). A 16 by 16 array of infrared photobeams, held in place by an aluminum frame, was situated ¾ inch above the Plexiglas floor of the chamber to detect locomotor and stereotypic movements. Photobeams were sampled by a Pentium computer to define the x-y position of the animal within a 1.5 inch resolution every 100 msec. When an x-y position was calculated, it was used to define a particular behavioral parameter. This system is a modified version of an Activity Pattern Monitor (APM) (San Diego Instruments, San Diego, Calif.). Behavioral data is presented in terms of Frequency of Events.
Neurochemical and behavioral data, derived from the last thirty minutes of the habituation period, provided the baseline data. […] Where appropriate, data points in the time course were subjected to 95% Confidence Limits (C.L.).

DA release in NAcc = test: In vivo microvoltammetry, DA release in NAcc (clozapine studies); set-up: species or system Sprague-Dawley Rattus Norvegicus; conditions: Subacute, cocaine 10 mg/kg i.p. on Day 1, hr period of study
Procedure: as §1, §2, §3, §4, §5

Q: What does the source list for `COC(=O)[C@H]1[C@@H](OC(=O)c2ccccc2)C[C@@H]2CC[C@H]1N2C` [Cocaine, cocaine]?
A: Maximum decrease in 5-HT below baseline, Subacute (5-HT release in NAcc; 24 hr after cocaine 10 mg/kg i.p.): 40%; Decrease in 5-HT release on Day 2 compared to drug effect on Day1 (5-HT release in NAcc; Subacute, cocaine 10 mg/kg i.p. on Day 1, second half hour of the study): approximately 150%; Stereotypy frequency, Day 2 (Subacute) ([1]; 24 hr after cocaine 10 mg/kg i.p. or risperidone 2 mg/kg s.c. + cocaine): 40 counts; Decrease in stereotypy frequency on Day 2 compared with drug treatment, Day1 ([1]; Subacute, cocaine 10 mg/kg i.p.): about 20 counts; Stereotypy frequency with drug treatment, Day1 ([1]; cocaine 10 mg/kg i.p. or risperidone 2 mg/kg s.c. + cocaine): 60 counts; Decrease in DA release on Day 2 compared to drug effect on Day 1 (DA release in NAcc): about 80%
